Data published in ChEMBL document CHEMBL1130619, “Quaternary substituted PDE4 inhibitors I: the synthesis and in vitro evaluation of a novel series of oxindoles” (Bioorg Med Chem Lett, 1998).

How the values were obtained:
Phosphodiesterase 4 [1] = target: T1, Phosphodiesterase 4 (Homo sapiens, UniProt P27815+Q08499+Q07343+Q08493); assay: Displacement of [3H]rolipram binding to guinea pig brain membrane; type: tissue-based, Cavia porcellus; details: target entry is the homologue from another species
Phosphodiesterase 4 [2] = target: T1, Phosphodiesterase 4; assay: Inhibition of guinea pig macrophage Phosphodiesterase 4; type: protein assay, Cavia porcellus; details: target entry is the homologue from another species

Row | Ki (Phosphodiesterase 4 [1]) | IC50 (Phosphodiesterase 4 [2]) | Compound
1 | > 3.7 µM | 1 µM | COc1ccc(C2(Cc3ccncc3)C(=O)N(Cc3ccncc3)c3ccccc32)cc1OC1CCCC1 (centres undefined)
2 | > 3.7 µM | 2.4 µM | COc1ccc(C2(Cc3ccncc3)C(=O)N(S(=O)(=O)c3ccc(C)cc3)c3ccccc32)cc1OC1CCCC1 (centres undefined)
3 | 2.6 µM | 0.4 µM | COc1ccc(C2(Cc3cccnc3)C(=O)Nc3ccccc32)cc1OC1CCCC1 (centres undefined)
4 | > 3.7 µM | 0.7 µM | COc1ccc(C2(Cc3ccccn3)C(=O)Nc3ccccc32)cc1OC1CCCC1 (centres undefined)
5 | > 3.7 µM | 1.2 µM | COc1ccc(C2(Cc3cc[n+]([O-])cc3)C(=O)Nc3ccccc32)cc1OC1CCCC1 (centres undefined)
6 | 0.2 µM | 0.6 µM | COc1ccc(C2(Cc3ccncc3)C(=O)Nc3ccccc32)cc1OC1CCCC1 (centres undefined)
7 | 2.4 µM | 1.7 µM | COc1ccc(C2(Cc3ccncc3)C(=O)N(C(=O)N(C)C)c3ccccc32)cc1OC1CCCC1 (centres undefined)
8 | 2.8 µM | 0.7 µM | COc1ccc(C2(Cc3ccncc3)C(=O)N(C(=O)OC(C)(C)C)c3ccccc32)cc1OC1CCCC1 (centres undefined)
9 | 0.06 µM | 0.0045 µM | COc1ccc([C@H](Cc2ccncc2)c2ccccc2)cc1OC1CCCC1 [CDP840]
10 | > 3.7 µM | 6 µM | COc1ccc(C2C(=O)Nc3ccccc32)cc1OC1CCCC1 (centres undefined)
11 | > 3.7 µM | 1 µM | COc1ccc(C2(Cc3ccccc3)C(=O)Nc3ccccc32)cc1OC1CCCC1 (centres undefined)
12 | > 3.7 µM | 2 µM | COc1ccc(C2(Cc3ccncc3)C(=O)N(Cc3ccccc3)c3ccccc32)cc1OC1CCCC1 (centres undefined)
